# Assay results reported in US12522602B2, “Derivatives having 2,3-dihydro-1H-indene or 2,3-dihydrobenzofuran moiety or pharmaceutically acceptable salt thereof and pharmaceutical compositions comprising the same” (YUHAN CORPORATION, priority 2019, dated 2026).
# pIC50: −log10 of the molar value. Where two headings read alike, the source gives them in different places.
# Tested on: GM1 production in Jurkat cells
# Experiment: cells
# Assay type: cell-based
Structure (SMILES),"pIC50 (Homo sapiens, Jurkat, 72 h)",pIC50 (read-out: IC50)
"COc1cc(-c2ccc3c(c2)CC(C)(C)C3NC(=O)O[C@@H]2CN3CCC2CC3)ccc1Cl (stereo partly drawn) [Example 125, (S)-quinuclidin-3-yl (5-(4-chloro-3-methoxyphenyl)-2,2-dimethyl-2,3-dihydro-1H-inden-1-yl)carbamate]",8.02,
"COc1ccc(-c2ccc3c(c2)CC(C)(C)C3NC(=O)O[C@@H]2CN3CCC2CC3)c(Cl)c1Cl (stereo partly drawn) [Example 126, (S)-quinuclidin-3-yl (5-(2,3-dichloro-4-methoxyphenyl)-2,2-dimethyl-2,3-dihydro-1H-inden-1-yl)carbamate]",7.30,
"CC(C)Oc1ccc(-c2ccc3c(c2)CC(C)(C)C3NC(=O)O[C@@H]2CN3CCC2CC3)cc1Cl (stereo partly drawn) [Example 127, (S)-quinuclidin-3-yl (5-(3-chloro-4-isopropoxyphenyl)-2,2-dimethyl-2,3-dihydro-1H-inden-1-yl)carbamate]",7.74,
"COc1ccc(-c2ccc3c(c2)CC(C)(C)C3NC(=O)O[C@@H]2CN3CCC2CC3)c(F)c1 (stereo partly drawn) [Example 128, (S)-quinuclidin-3-yl (5-(2-fluoro-4-methoxyphenyl)-2,2-dimethyl-2,3-dihydro-1H-inden-1-yl)carbamate]",7.74,
"CN(C)c1cc(-c2ccc3c(c2)CC(C)(C)C3NC(=O)O[C@@H]2CN3CCC2CC3)ccc1F (stereo partly drawn) [Example 129, (S)-quinuclidin-3-yl (5-(3-(dimethylamino)-4-fluorophenyl)-2,2-dimethyl-2,3-dihydro-1H-inden-1-yl)carbamate]",7.43,
"CC1(C)Cc2cc(-c3ccc4c(c3)CCCO4)ccc2C1NC(=O)O[C@@H]1CN2CCC1CC2 (stereo partly drawn) [Example 130, (S)-quinuclidin-3-yl (5-(chroman-6-yl)-2,2-dimethyl-2,3-dihydro-1H-inden-1-yl)carbamate]",8.00,
"CC1(C)Cc2cc(-c3ccc(C4CC4)cc3)ccc2C1NC(=O)O[C@@H]1CN2CCC1CC2 (stereo partly drawn) [Example 131, (S)-quinuclidin-3-yl (5-(4-cyclopropylphenyl)-2,2-dimethyl-2,3-dihydro-1H-inden-1-yl)carbamate]",7.97,
"CN(C)c1ccc(-c2ccc3c(c2)CC(C)(C)C3NC(=O)O[C@@H]2CN3CCC2CC3)cc1 (stereo partly drawn) [Example 132, (S)-quinuclidin-3-yl (5-(4-(dimethylamino)phenyl)-2,2-dimethyl-2,3-dihydro-1H-inden-1-yl)carbamate]",7.53,
"CCOc1ccc(-c2ccc3c(c2)CC(C)(C)C3NC(=O)O[C@@H]2CN3CCC2CC3)cc1F (stereo partly drawn) [Example 133, (S)-quinuclidin-3-yl (5-(4-ethoxy-3-fluorophenyl)-2,2-dimethyl-2,3-dihydro-1H-inden-1-yl)carbamate]",7.65,
"COc1ccc(-c2ccc3c(c2)CC(C)(C)C3NC(=O)O[C@@H]2CN3CCC2CC3)cc1C(F)(F)F (stereo partly drawn) [Example 134, (S)-quinuclidin-3-yl (5-(4-methoxy-3-(trifluoromethyl)phenyl)-2,2-dimethyl-2,3-dihydro-1H-inden-1-yl)carbamate]",7.36,
"CCCOc1ccc(-c2ccc3c(c2)CC(C)(C)C3NC(=O)O[C@@H]2CN3CCC2CC3)cc1 (stereo partly drawn) [Example 135, (S)-quinuclidin-3-yl (2,2-dimethyl-5-(4-propoxyphenyl)-2,3-dihydro-1H-inden-1-yl)carbamate]",8.09,
"CC(C)COc1ccc(-c2ccc3c(c2)CC(C)(C)C3NC(=O)O[C@@H]2CN3CCC2CC3)cc1 (stereo partly drawn) [Example 136, (S)-quinuclidin-3-yl (5-(4-isobutoxyphenyl)-2,2-dimethyl-2,3-dihydro-1H-inden-1-yl)carbamate]",8.77,
"CC1(C)Cc2cc(-c3ccsc3)ccc2C1NC(=O)O[C@@H]1CN2CCC1CC2 (stereo partly drawn) [Example 137, (S)-quinuclidin-3-yl (2,2-dimethyl-5-(thiophen-3-yl)-2,3-dihydro-1H-inden-1-yl)carbamate]",7.92,
"Cc1cscc1-c1ccc2c(c1)CC(C)(C)C2NC(=O)O[C@@H]1CN2CCC1CC2 (stereo partly drawn) [Example 138, (S)-quinuclidin-3-yl (2,2-dimethyl-5-(4-methylthiophen-3-yl)-2,3-dihydro-1H-inden-1-yl)carbamate]",8.04,
"CN(C)CCOc1cccc(-c2ccc3c(c2)CC(C)(C)C3NC(=O)O[C@@H]2CN3CCC2CC3)c1 (stereo partly drawn) [Example 139, (S)-quinuclidin-3-yl (5-(3-(2-(dimethylamino)ethoxy)phenyl)-2,2-dimethyl-2,3-dihydro-1H-inden-1-yl)carbamate]",7.13,
"CC1(C)Cc2cc(-c3cccc4ccncc34)ccc2C1NC(=O)O[C@@H]1CN2CCC1CC2 (stereo partly drawn) [Example 140, (S)-quinuclidin-3-yl (5-(isoquinolin-8-yl)-2,2-dimethyl-2,3-dihydro-1H-inden-1-yl)carbamate]",7.98,
"CC1(C)Cc2cc(-c3cccc4cnccc34)ccc2C1NC(=O)O[C@@H]1CN2CCC1CC2 (stereo partly drawn) [Example 141, (S)-quinuclidin-3-yl (5-(isoquinolin-5-yl)-2,2-dimethyl-2,3-dihydro-1H-inden-1-yl)carbamate]",7.40,
"CC1(C)Cc2cc(-c3cncc4ccccc34)ccc2C1NC(=O)O[C@@H]1CN2CCC1CC2 (stereo partly drawn) [Example 142, (S)-quinuclidin-3-yl (5-(isoquinolin-4-yl)-2,2-dimethyl-2,3-dihydro-1H-inden-1-yl)carbamate]",7.69,

Structure (SMILES),"pIC50 (Homo sapiens, Jurkat, 72 h)",pIC50 (read-out: IC50)
"CC1(C)Cc2cc(-c3cnc4ccccc4c3)ccc2C1NC(=O)O[C@@H]1CN2CCC1CC2 (stereo partly drawn) [Example 143, (S)-quinuclidin-3-yl (2,2-dimethyl-5-(quinolin-3-yl)-2,3-dihydro-1H-inden-1-yl)carbamate]",,7.60
"CC(C)Oc1ccc(-c2ccc3c(c2)CC(C)(C)C3NC(=O)O[C@@H]2CN3CCC2CC3)cc1 (stereo partly drawn) [Example 144, (S)-quinuclidin-3-yl (5-(4-isopropoxyphenyl)-2,2-dimethyl-2,3-dihydro-1H-inden-1-yl)carbamate]",8.21,
"CC(C)Oc1ccccc1-c1ccc2c(c1)CC(C)(C)C2NC(=O)O[C@@H]1CN2CCC1CC2 (stereo partly drawn) [Example 145, (S)-quinuclidin-3-yl (5-(2-isopropoxyphenyl)-2,2-dimethyl-2,3-dihydro-1H-inden-1-yl)carbamate]",7.64,
"CC(C)(C)c1ccc(-c2ccc3c(c2)CC(C)(C)C3NC(=O)O[C@@H]2CN3CCC2CC3)cc1 (stereo partly drawn) [Example 146, (S)-quinuclidin-3-yl (5-(4-(tert-butyl)phenyl)-2,2-dimethyl-2,3-dihydro-1H-inden-1-yl)carbamate]",7.85,
"CCc1ccc(-c2ccc3c(c2)CC(C)(C)C3NC(=O)O[C@@H]2CN3CCC2CC3)cc1 (stereo partly drawn) [Example 147, (S)-quinuclidin-3-yl (5-(4-ethylphenyl)-2,2-dimethyl-2,3-dihydro-1H-inden-1-yl)carbamate]",7.85,
"CC1(C)Cc2cc(-c3ccc(N4CCOCC4)cc3)ccc2C1NC(=O)O[C@@H]1CN2CCC1CC2 (stereo partly drawn) [Example 148, (S)-quinuclidin-3-yl (2,2-dimethyl-5-(4-morpholinophenyl)-2,3-dihydro-1H-inden-1-yl)carbamate]",7.52,
"COCc1ccc(-c2ccc3c(c2)CC(C)(C)C3NC(=O)O[C@@H]2CN3CCC2CC3)cc1 (stereo partly drawn) [Example 149, (S)-quinuclidin-3-yl (5-(4-(methoxymethyl)phenyl)-2,2-dimethyl-2,3-dihydro-1H-inden-1-yl)carbamate]",7.56,
"CC1(C)Cc2cc(-c3ccc(OCC(F)F)cc3)ccc2C1NC(=O)O[C@@H]1CN2CCC1CC2 (stereo partly drawn) [Example 150, (S)-quinuclidin-3-yl (5-(4-(2,2-difluoroethoxy)phenyl)-2,2-dimethyl-2,3-dihydro-1H-inden-1-yl)carbamate]",8.17,
"Cc1cc(-c2ccc3c(c2)CC(C)(C)C3NC(=O)O[C@@H]2CN3CCC2CC3)ccc1N1CCOCC1 (stereo partly drawn) [Example 151, (S)-quinuclidin-3-yl (2,2-dimethyl-5-(3-methyl-4-morpholinophenyl)-2,3-dihydro-1H-inden-1-yl)carbamate]",7.42,
"CC1(C)Cc2cc(-c3ccc(N4CCOCC4)c(F)c3)ccc2C1NC(=O)O[C@@H]1CN2CCC1CC2 (stereo partly drawn) [Example 152, (S)-quinuclidin-3-yl (5-(3-fluoro-4-morpholinophenyl)-2,2-dimethyl-2,3-dihydro-1H-inden-1-yl)carbamate]",7.49,
"CC1(C)Cc2cc(-c3ccc(N4CCOCC4)c(Cl)c3)ccc2C1NC(=O)O[C@@H]1CN2CCC1CC2 (stereo partly drawn) [Example 153, (S)-quinuclidin-3-yl (5-(3-chloro-4-morpholinophenyl)-2,2-dimethyl-2,3-dihydro-1H-inden-1-yl)carbamate]",7.38,
"CC1(C)Cc2cc(-c3ccc4c(c3)OCCCO4)ccc2C1NC(=O)O[C@@H]1CN2CCC1CC2 (stereo partly drawn) [Example 154, (S)-quinuclidin-3-yl (5-(3,4-dihydro-2H-benzo[b][1,4]dioxepin-7-yl)-2,2-dimethyl-2,3-dihydro-1H-inden-1-yl)carbamate]",7.56,
"CC1(C)Cc2cc(-c3cccc(C(F)F)c3)ccc2C1NC(=O)O[C@@H]1CN2CCC1CC2 (stereo partly drawn) [Example 155, (S)-quinuclidin-3-yl (5-(3-(difluoromethyl)phenyl)-2,2-dimethyl-2,3-dihydro-1H-inden-1-yl)carbamate]",8.08,
"CC1(C)Cc2cc(-c3cccc4cccnc34)ccc2C1NC(=O)O[C@@H]1CN2CCC1CC2 (stereo partly drawn) [Example 156, (S)-quinuclidin-3-yl (2,2-dimethyl-5-(quinolin-8-yl)-2,3-dihydro-1H-inden-1-yl)carbamate]",7.33,
"CC1(C)Cc2cc(-c3coc4ccccc34)ccc2C1NC(=O)O[C@@H]1CN2CCC1CC2 (stereo partly drawn) [Example 157, (S)-quinuclidin-3-yl (5-(benzofuran-3-yl)-2,2-dimethyl-2,3-dihydro-1H-inden-1-yl)carbamate]",8.55,
"CC1(C)Cc2cc(-c3cc4ccccc4o3)ccc2C1NC(=O)O[C@@H]1CN2CCC1CC2 (stereo partly drawn) [Example 158, (S)-quinuclidin-3-yl (5-(benzofuran-2-yl)-2,2-dimethyl-2,3-dihydro-1H-inden-1-yl)carbamate]",7.77,
"COc1ccc(-c2ccc3c(c2)CC(C)(C)C3NC(=O)O[C@@H]2CN3CCC2CC3)cc1 (stereo partly drawn) [Example 159, (S)-quinuclidin-3-yl (5-(4-methoxyphenyl)-2,2-dimethyl-2,3-dihydro-1H-inden-1-yl)carbamate]",7.90,
"CCOc1ccc(-c2ccc3c(c2)CC(C)(C)C3NC(=O)O[C@@H]2CN3CCC2CC3)cc1 (stereo partly drawn) [Example 160, (S)-quinuclidin-3-yl (5-(4-ethoxyphenyl)-2,2-dimethyl-2,3-dihydro-1H-inden-1-yl)carbamate]",7.64,
